The values below come from US20150148372A1, “BICYCLIC HETEROCYCLES AS BET PROTEIN INHIBITORS” (Incyte Corporation, priority 2013, published 2015).

For one experiment, the target named is T1, BRD4-BD2 (Homo sapiens, UniProt O60885).
T1 construct: 20 nM (BRD4-BD2, BPS Bioscience #31041); purchased BPS Bioscience 31041
The experiment can be described thus: BRD4 AlphaScreen assay, BD2. The format is binding. The conditions noted are these: H4Ac4 peptide, 20 nM BRD4-BD2, read-out: BRD4 BD-2 enzyme IC50. On the procedure: (§1) BRD4-BD1 and BRD4-BD2 assays were conducted in white 384-well polystyrene plate in a final volume of 20 μL for BD1 and 40 μL for BD2. Inhibitors were first serially diluted in DMSO and added to the plate wells before the addition of other reaction components. The final concentration of DMSO in the assay was 1.25% (BD1) and 0.83% (BD2). The assays were carried out at room temperature for 75 min. in the assay buffer (50 mM HEPES, pH 7.4, 100 mM NaCl, 0.05% CHAPS, 0.01% BSA), containing 50 nM Biotin-labeled tetra-acetylated histone H4 peptide (H4Ac4), 3.8 nM (BRD4-BD1, BPS Bioscience #31040) or 20 nM (BRD4-BD2, BPS Bioscience #31041). The reaction followed by the addition of 20 μL of assay buffer supplemented with Streptavidin donor beads (PerkinElmer 6760002) and GSH Acceptor beads (PerkinElmer-AL 109C) at 4 μg/mL under reduced light. After plate sealing, the plate was incubated in the dark at room temperature for 75 min. before reading on a PHERAstar FS plate reader (BMG Labtech). IC50 determination was performed by fitting the curve of percent control activity versus the log of the inhibitor concentration using the GraphPad Prism 5.0 software. IC50 data for the Examples is presented in Table 1 as determined by Assay A1.

For a further experiment, the target named is T2, BRD4-BD1 (Homo sapiens, UniProt O60885).
T2 construct: 3.8 nM (BRD4-BD1, BPS Bioscience #31040); purchased BPS Bioscience 31040
As to the kind of experiment: BRD4 AlphaScreen assay, BD1. It counts as binding. The conditions noted are these: H4Ac4 peptide, 3.8 nM BRD4-BD1, read-out: BRD4 BD-1 enzyme IC50. On the procedure: as §1
For orientation: In Alpha technology, singlet oxygen from a donor bead excites a nearby acceptor bead.

The structures appear in SMILES notation.

Regarding `Cn1cc(-c2c(Oc3ccc(F)cc3F)ccc3[nH]c(=O)[nH]c23)c2cc[nH]c2c1=O` [Example 1, 5-(2,4-Difluorophenoxy)-4-(6-methyl-7-oxo-6,7-dihydro-H-pyrrolo[2,3-c]pyridin-4-yl)-1,3-dihydro-2H-benzimidazol-2-one], the IC50 – broadly, the midpoint of a concentration-inhibition curve – on BRD4-BD2 lay within 0.1 to 1 µM; at BRD4-BD1, 1 to 10 µM.
With `Cn1cc(-c2c(Oc3ccc(F)cc3F)ccc3[nH]cnc23)c2cc[nH]c2c1=O` [Example 2, 4-[5-(2,4-Difluorophenoxy)-1H-benzimidazol-4-yl]-6-methyl-1,6-dihydro-7H-pyrrolo[2,3-c]pyridin-7-one], the IC50 on BRD4-BD2 is no more than 0.1 µM; at BRD4-BD1 it was 1 to 10 µM.
